Reference: patent US8329141B2, “Locoregional internal radionuclide ablation of abnormal tissues” (Board of Regents, The University of Texas System, priority 2004, dated 2012)
Entries after “also recorded” stand apart in the source; their conditions may differ.

Tests used:
human cancer cell lines = details: a number of human cancer cell lines; cited from earlier work
[1] = test system: rat mammary cancer 13762F tumor cells; assay: In vivo tumor growth after intratumoral injection of radiopharmaceuticals (rat mammary cancer model); set-up: species or system Fischer 344 female rats; details: for tumor growth / tumor development: 0.6 mCi intratumoral on day 10 in 0.1-0.2 ml saline (pH 4.5-6), FIG. 2
Method: The radionuclides YCl3, ^111In—Cl, and ^201Tl—Cl were obtained from a local supplier of radioisotopes, Iso-Tex Diagnostics (Friendswood, Tex.). YCl3 obtained from the supplier was in an acidic preparation with a pH of 2-3, and was subsequently diluted in saline to a final pH of about 4-6 before injection. Initial activities of ^111In—Cl and YCl3 were about 200-500 mCi/ml, and dilution were made with preservative-free saline. YIMA was prepared by co-precipitation, as set forth in U.S. Ser. No. 10/724,027. Briefly, 500 μl of FeCl3 (1 mg Fe/ml) was added to 30 μl of ^90Y chloride (20-40 μCi/30 μl), and either 30 μl of NaOH (1.0 N) or 10 μl of NH4OH (20.0%) was added to the solution to reach a pH of about 7.0 to 9.0. Co-precipitated YIMA radiopharmaceutical macroaggregates were then separated from remaining soluble radionuclides by centrifuging the reactions from 1500 RPM to 3000 RPM×5 minutes, and filtered using a Millipore Nylone (size: 0.45 μm, diameter: 13 mm) to isolate the radiopharmaceutical macroaggregates.
The rat model of in vivo tumor growth was generated as follows. On day zero, 100,000 rat mammary cancer 13762F tumor cells were implanted in a volume of 0.15 ml into the right thigh muscle of Fischer 344 female rats weighing approximately 160 grams. […] YIMA was injected in a volume of 0.2 ml on days 3-7 after tumor implantation. Tumor sizes and body weights of the rats were monitored regularly (5 times a week) for several weeks, or until the tumors grew beyond 2.5 cm, at which time the rats were euthanized.

rat breast cancer = details: systemic injection (Mortimer and Taylor; Moadel et al.); cited from earlier work
[2] = In vivo local sequestration at the injection site by serial scintigrams (intramuscular or intratumoral injection); set-up: species or system Fischer rats; details: for effect of free iron in the injectate on retention / local sequestration / retention time with free iron: admixture with FeCl3.6H2O; for effect of free iron in the injectate on retention / local sequestration: 1 mg Fe in total injectate; for retention time with free iron: intramuscular or intratumoral injection; for clearance after intramuscular injection: thigh muscle, after only 3 hours, negative control
Method: To further study the localization of unsealed radiopharmaceuticals after injection, in vivo imaging studies were carried out comparing ^111In DTPA (In-DTPA) (negative control) and Indium-111-Iron Macroaggregate (^111In-IMA) (positive control) to ^111In—Cl. ^111In emits gamma rays that can be detected using a gamma camera. ^111In-IMA was generated according to methods disclosed in U.S. Ser. No. 10/724,027, incorporated herein by reference. Each radiopharmaceutical was administered by intramuscular injection into the thigh muscle of Fischer rats which weighed approximately 200 grams. Two different doses of ^111In—Cl were administered to the rats, 0.4 and 0.8 mCi in 0.2 ml saline. Distribution of the ^111In—Cl was determined through serial scintigrams. […] In comparison, when ^111In-IMA was administered to rats, consistent retention (84%) of the ^111In-IMA was found 70 hours after administration (FIG. 8). Persistent intramuscular localization of ^111In—Cl was also found in rats for both dose levels of ^111In—Cl, with over 50% of the injected ^111In—Cl remaining in the injection site after three days.
To investigate whether the addition of free iron to radionuclides would increase the locoregional retention of various radionuclides, admixtures of ^67Ga-citrate, YCl3, or ^111In—Cl, were prepared with FeCl3.6H2O at 1-5 mg Fe/ml. Each radionuclide combination/admixture was administered either by intramuscular (IM) injection into the thigh muscle of the left leg (0.1-1.0 mCi) or by intratumoral (IT) injection into a tumor in the right leg (0.4-5.0 mCi) of Fischer rats. Distribution of the radionuclide was determined through serial scintigrams. Whole body images were acquired with a Siemens M-CAM camera using respective photo peaks of Ga-67, Tl-201 (for Y-90), or In-111, and 15-20% windows in photo energy. The typical imaging time was 0.5 to 5 minutes. A respective standard was present in the field of view (0.1-0.5 mCi), and used for image quantification by comparing images with the standard and normalizing the initial injection time as 100%. The Fe content in each combination/admixture was 1 mg in the total injectate.

[3] = up to a 20 mg/kg systemic dose (Kalia; Mohanti et al.); cited from earlier work
[4] = intravenous; four days after injection (Kutzner et al.); cited from earlier work
[5] = cited from earlier work
CSF proteins = assay: Binding to CSF proteins (Centrifree filter separation); type: in vitro ADME, human (patients); details: 0.2, 0.5 or 1 μCi added to diluted CSF, 20 minutes; physiologic range, all concentrations tested
Method: To test the hypothesis that local sequestration of ^111In—Cl is due to protein binding, both ^111In—Cl and YCl3 were tested for binding to CSF and serum proteins. Serum proteins were obtained from residual baseline serum and CSF proteins were obtained from patients participating in other research protocols who had consented to blood sampling. To determine the level of ^111In—Cl protein binding, 0.2, 0.5, or 1 μCi of ^111In—Cl was added to diluted CSF (0.125 or 0.5) or diluted serum protein (0.125 and 0.25) and incubated for 20 minutes. To determine the level of YCl3 protein binding, 0.2, 0.5, or 1 μCi of YCl3 was added to diluted CSF (0.063 or 0.5) or diluted serum protein (0.063 and 0.375), and incubated for 20 minutes. After incubation, free radiopharmaceuticals were separated from protein bound ^111In—Cl or YCl3 using Amicon Centrifree Micropartition filters in a single centrifugation step at 3000 g for 15 minutes according to manufacturer's instructions (Amicon, Beverly, Mass.). The percent binding of YCl3 or ^111In—Cl to the CSF or serum protein was then calculated. As shown in FIG. 6 and FIG. 7 respectively, both YCl3 and ^111In—Cl bind avidly to CSF and serum protein within the physiologic range (a dilution factor between 0.2 and 0.6) at all concentrations tested. At room temperature, both YCl3 and ^111In—Cl have greater than 95% binding to serum proteins.

serum proteins = assay: Binding to serum proteins (Centrifree filter separation); type: in vitro ADME, human (patients); details: 0.2, 0.5 or 1 μCi added to diluted serum protein, 20 minutes; physiologic range, all concentrations tested
Method: To test the hypothesis that local sequestration of ^111In—Cl is due to protein binding, both ^111In—Cl and YCl3 were tested for binding to CSF and serum proteins. Serum proteins were obtained from residual baseline serum and CSF proteins were obtained from patients participating in other research protocols who had consented to blood sampling. To determine the level of ^111In—Cl protein binding, 0.2, 0.5, or 1 μCi of ^111In—Cl was added to diluted CSF (0.125 or 0.5) or diluted serum protein (0.125 and 0.25) and incubated for 20 minutes. To determine the level of YCl3 protein binding, 0.2, 0.5, or 1 μCi of YCl3 was added to diluted CSF (0.063 or 0.5) or diluted serum protein (0.063 and 0.375), and incubated for 20 minutes. After incubation, free radiopharmaceuticals were separated from protein bound ^111In—Cl or YCl3 using Amicon Centrifree Micropartition filters in a single centrifugation step at 3000 g for 15 minutes according to manufacturer's instructions (Amicon, Beverly, Mass.). The percent binding of YCl3 or ^111In—Cl to the CSF or serum protein was then calculated. As shown in FIG. 6 and FIG. 7 respectively, both YCl3 and ^111In—Cl bind avidly to CSF and serum protein within the physiologic range (a dilution factor between 0.2 and 0.6) at all concentrations tested. At room temperature, both YCl3 and ^111In—Cl have greater than 95% binding to serum proteins. […]

[6] = Biodistribution and projected human radiation dosimetry after intravenous or intramuscular injection; type: in vivo, female Fisher rats; details: for human dosimetry estimate, kidney / human dosimetry estimate, red marrow: from rat biodistribution
Method: To evaluate the radiation toxicity of YCl3 after intravenous or intramuscular injection, parallel experiments were performed to evaluate the biodistribution and projected human radiation dosimetry of both ^111In—Cl and YCl3. The experiments used three female Fisher rats (140-160 grams) for each set of injections. Each rat was injected intravenously, or was injected intramuscularly in the right thigh, with 0.05 mCi of YCl3 or ^111In—Cl (with no carrier added) in 0.1 ml saline (pH 5-6). The effect of initial exposure of the radiopharmaceuticals to interstitial fluid was estimated by serum protein binding experiments using Millipore Centrifree filters as set forth in Example 2. Organs including the right and left femur, as well as the right and left thigh muscles, were harvested from each rat 7 days after injection. Human dosimetry for each radiopharmaceutical was constructed using established anthropomorphic models.

[7] = FIG. 4, in 0.5 ml saline, YCl3 0.5, 1.0, 2.0 mCi, ^111In—Cl 1.0, 4.0 mCi, FDG 1.0, 2.0, 3.0 mCi, ^67Ga—Fe 1.77 mCi

Rhodamine-123 [Rh-123]
toxicity to cancer cell lines (human cancer cell lines): selectively toxic

OC[C@H]1OC(O)[C@H]([18F])[C@@H](O)[C@@H]1O (stereo partly drawn) [FDG, F-18-2-deoxy-2-fluoro-D-glucose, reference compound]
tumor growth [1, 7]: YCl3 appeared to be the only radiopharmaceutical that significantly suppressed tumor growth
induction of apoptosis (rat breast cancer): sufficient to induce apoptosis

[Cl][201Tl] [^201Tl—Cl, Thallium-201 chloride, reference compound]
tumor growth / tumor development [1]: not reduced
effect of free iron in the injectate on retention / local sequestration ([2]; intratumoral injection): did not dramatically slow down clearance

O=C([O-])CC(O)(CC(=O)[O-])C(=O)[O-].[67Ga+3] [^67Ga citrate, Gallium 67 citrate, reference compound]
retention time with free iron [2]: Increase in the retention time
retention in the injection site ([2]; intramuscular injection, without free iron): comparatively short time

O=CC[C@@H](O)[C@H](O)[C@H](O)CO [2DG, 2-deoxy-D-glucose]
enhancement of the effects of a radiopharmaceutical [3]: effective in enhancing the effects of a radiopharmaceutical

^111In DTPA [^111In-DTPA, reference compound]
clearance after intramuscular injection ([2]; intramuscular): rapidly cleared
clearance after intramuscular injection ([2]; intramuscular, listed as In-DTPA): rapid clearance

[O]=[188Re](=[O])(=[O])[O-] [^188Re perrhenate, reference compound]
clearance from the injection site ([2]; intratumoral injection, without free iron, FIG. 16): rapidly cleared
effect of free iron in the injectate on retention / local sequestration ([2]; intratumoral injection): did not slow down the clearance

[Cl][Ga]([Cl])[Cl] [^67Ga—Cl, Gallium 67 chloride]
retention time with free iron [2]: Increase in the retention time

[90Y] [^90Y, Yttrium-90]
injected amount present in the bones [4]: 50%-80%
radiation toxicity in red bone marrow ([5]; by ICRP-30): 15-18 cGy/mCi
red marrow dose ([5]; derived from distribution of Yttrium-86 citrate in human PET studies (Herzog et al.)): 4-6 cGy/mCi

[Cl][111In]([Cl])[Cl] [^111In—Cl, Indium-111 chloride]
tumor growth / tumor development [1]: not suppressed; also recorded: not reduced; also recorded: did not suppress tumor development
tumor growth ([1]; FIG. 3, in 0.2-0.3 ml saline, YCl3 0.3, 0.6, 1.5 mCi, ^111In—Cl 0.6, 1.2, 2.4, 4.8 mCi, ^67Ga 0.6 mCi): YCl3 appeared to be the only radiopharmaceutical that significantly suppressed tumor growth
tumor growth [1, 7]: YCl3 appeared to be the only radiopharmaceutical that significantly suppressed tumor growth
tumor growth ([1]; FIG. 5, in 1.0 ml saline, ^111In—Cl 2.2 mCi, ^188Re EDTA 1.5 mCi with or without free iron): strong tumor suppression
change in tumor suppression with injection volume ([1]; injection volume increased from 0.2-0.3 ml and 0.5 ml to 1.0 ml, therapeutic dosage not increased): dramatic increase in tumor suppression
binding to CSF (CSF proteins): bind avidly
binding to serum protein (serum proteins): bind avidly
retention time with free iron [2]: Increase in the retention time
effect of free iron in the injectate on retention / local sequestration ([2]; intramuscular injection): does not appear to dramatically affect
injected radiopharmaceutical remaining in the injection site ([2]; intramuscular, 0.4 and 0.8 mCi in 0.2 ml saline (both dose levels), after three days): over 50%
effect of pH of the injectate on local sequestration ([2]; intramuscular, acidic solution (pH 3.0) vs basic solution (pH 8.0), FIG. 9): does not appear to dramatically affect
effect of free iron in the injectate on retention / local sequestration ([2]; intratumoral injection): does appear to increase
skeletal distribution ([6]; estimated from the left femur (opposite to the injection site)): about 16%
radiation uptake in the right thigh muscle ([6]; intramuscular injection in right thigh): high
radiation uptake in right femur versus contralateral organ ([6]; intramuscular injection in right thigh, decreasing over time to): 3 times higher
radiation uptake in right femur versus contralateral organ ([6]; intramuscular injection in right thigh, initial): 6 times higher
human dosimetry estimate, kidney ([6]; intramuscular): 1.13 cGy/mCi
human dosimetry estimate, red marrow ([6]; intramuscular): 0.55 cGy/mCi
organs with the highest uptake ([6]; intravenous injection, 0.05 mCi in 0.1 ml saline): spleen, liver, and kidney
human dosimetry estimate, kidney ([6]; intravenous): 10.4 cGy/mCi
human dosimetry estimate, red marrow ([6]; intravenous): 4.01 cGy/mCi
